Reference: US20240189307A1, “METHODS OF STABILIZING THE NEURONAL PROTEOME AGAINST COLLAPSE AND PROTECTING VASCULAR CELLS” (ALBERT EINSTEIN COLLEGE OF MEDICINE, priority 2021, published 2024)

System: PS19 mice (tau P301S)
Assay: PS19 mouse model of Frontotemporal dementia-related proteotoxicity, oral daily CA
Format: in vivo
Procedure: FIG. 11. Chemical activation of CMA improves behavior and neuropathology in a mouse model of Frontotemporal dementia-related proteotoxicity. (A) Schematic of regimen of CMA activator (CA) administration to mice overexpressing human P301S tau (PS19). (B, C) Spontaneous locomotion in an open field of 9-month-old CTR or PS19 mice administered vehicle (Veh) or CA. Representative tracks (B) and total distance traveled in 10 min (C). (D-H) Immunostaining for MC1 tau in the hippocampus, the amygdala and the piriform cortex of 9 months old CTR, PS19 +/− CA. Representative images of the indicated brain regions (D). Scale bars: hippocampus: 500 μm, amygdala and piriform cortex: 200 μm. Quantification of the area stained in the hippocampus (E), (F-J) Immunoblots for tau and phosphorylated tau. Representative immunoblots and densitometric quantifications for the indicated proteins: S422-phosphorylated tau (G), S202/T205-phosphorylated tau (AT8) (H), MC1 tau (I) and total tau (J). (K-M) Immunostaining for Iba1 (K) and quantification of average cell size in the hippocampus (L) and the piriform cortex (M). Scale bars: hippocampus: 500 μm and piriform cortex: 200 μm. Data are mean+s.e.m. Individual values are shown for n=9-10 mice per genotype and treatment in C, E, G-M). Comparisons were made using one-way ANOVA followed by Tukey's post-hoc analysis (C, E, G, I-M) or Kruskal-Wallis test followed by Dunn's post hoc test (H). *p<0.05, **p<0.005, ***p<0.0005.
Male wild-type mice (C57BL/6J) or transgenic for CaMKIIα-Cre (B6.Cg-Tg(Camk2α-cre)T29-1Stl/J, Jackson Laboratory), LAMP-2A^flox/flox (Schneider et al., 2014), Tau^P301L (line pR5), Tg (APP^Swe; PS2^N141I; Tau^P301L), PS19 (Tau^P301S) (Yoshiyama et al., 2007) and Atg7^f/f were used in the study. Conditional LAMP-2A deletion was generated by breeding LAMP-2A^flox/flox with the transgenic Cre mice of interest. Knockout for L2A in the whole body (L2A^−/−) was generated by insemination of a wild-type female with spermatozoids with L2A floxed to excise this gene in all tissues in the offspring. Male littermate wild type and only L2A^f/f were separately analyzed for each test and because no differences were detected among them, they were grouped in the results as “control” (CTR) for the experimental group (^CamKII[…] CreL2A^f/f or L2A^−/−). All mice were genotyped at weaning and genotyping was re-confirmed postmortem to correct for any possible misplacement during husbandry. Mice were all in the C57BL/6J background and maintained under specific pathogen-free conditions in ventilated cages with no more than 5 mice per cage. Only males were used in this study due to the complexity in generating the quadruple transgenic mouse model with L2A knock out in homozygosis (for which we took advantage of the location of the Lamp2 gene in the X chromosome). Age of the animals was 4-6 months in most experiments except when otherwise indicated in text, figures and figure legends. Animals were maintained at 19-23° C. in 12 h light/dark cycle. Mice were fed ad libitum. CA77.1 was administered as sucralose jelly pellets for a daily dose of 30 mg/Kg body weight whereas the vehicle treated group received the same sucralose jelly pellet without drug. Briefly, for preparation of the jelly pellets the final amount of the compound per day (adjusted per animal weight) was dissolved in ethanol and then mixed with a warm gelatin solution (100 mg/ml, 10 mg/ml sucralose in water), that was poured into 24 well flat bottom plates for solidification. To avoid animal stress and competition for the pellets, animals were separated with a grid spacer in the same cage that they were housed, eating of the pellet was monitored and the spacer was removed as soon as all mice consumed the pellet (average time 2 min). Sentinel animals were included in each study to determine brain exposure at the end of treatment. These animals received the same batch of jelly pellets in parallel to the experimental group. […]

## CC(=O)Nc1ccc(-c2cnc3cc(Cl)ccc3n2)cc1 [CA77.1]
30 mg/kg body weight oral daily for 6 months from 3 months of age
  spontaneous locomotion in open field (locomotor hyperactivity): normalized the previously described locomotor hyperactivity of PS19 mice to control levels
30 mg/kg oral daily, 6 months
  immunoblot levels of aberrant, phosphorylated, oligomeric and insoluble tau: lower levels of conformationally aberrant, S422 and AT8 phosphorylated, oligomeric and insoluble forms of tau
  total levels of human tau: did not reduce total levels of human tau
Hippocampus and piriform cortex, 30 mg/kg oral daily, 6 months
  number of microglial cells and large Iba1-positive dystrophic cells: reduced upon CA treatment
hippocampus, amygdala and piriform cortex, 30 mg/kg oral daily, 6 months
  MC1 pathogenic tau conformations, levels and number of neurons: reduced the levels and number of neurons containing pathogenic tau conformations
hippocampus, 30 mg/kg oral daily, 6 months, vehicle 60%
  mice with tau Type III pathology (S202/T205, AT8 staining): 10%
